# Reference: ChEMBL document CHEMBL4602604, “A Selective and Brain Penetrant p38αMAPK Inhibitor Candidate for Neurologic and Neuropsychiatric Disorders That Attenuates Neuroinflammation and Cognitive Dysfunction” (J Med Chem, 2019)
# Active and inactive are the calls of the source. The calls are words filed in the database; no cut-off is given here.
# Columns and labels:
# [1] = human, microsomes, 1 µM
# [2] = target: Alpha-1A adrenergic receptor (Homo sapiens) (UniProt P35348); test: Inhibition of human adrenergic alpha1a receptor at 10 uM
# Cytochrome P450 1A2 = Cytochrome P450 1A2 (Homo sapiens, UniProt P05177); test: Inhibition of human recombinant CYP1A2 at 10 uM incubated for 10 to 30 mins in presence of CYP-specific probe CEC substrate by LC-MS/MS analysis; format: ADME; conditions: recombinant enzyme
# Cytochrome P450 2C19 = Cytochrome P450 2C19 (Homo sapiens, UniProt P33261); test: Inhibition of human recombinant CYP2C19 at 10 uM incubated for 10 to 30 mins in presence of CYP-specific probe CEC substrate by LC-MS/MS analysis; format: ADME; conditions: recombinant enzyme
# [3] = target: Glutamate NMDA receptor (Rattus norvegicus) (UniProt P35439+Q00959+Q00960+Q00961+Q62645+Q8VHN2+Q9R1M7); test: Inhibition of rat NMDA receptor at 10 uM; format: protein-complex assay
# [4] = target: Histamine H1 receptor (Homo sapiens) (UniProt P35367); test: Inhibition of human histamine H1 receptor at 10 uM
# [5] = target: Androgen receptor (Homo sapiens) (UniProt P10275); test: Inhibition of human androgen receptor at 10 uM
# Cytochrome P450 2C9 = Cytochrome P450 2C9 (Homo sapiens, UniProt P11712); test: Inhibition of human recombinant CYP2C9 at 10 uM incubated for 10 to 30 mins in presence of CYP-specific probe MFC substrate by LC-MS/MS analysis; format: ADME; conditions: recombinant enzyme
# [6] = Permeability in human Caco2 cells at 5 uM by LC-MS/MS analysis; format: ADME, cell-based; conditions: caco-2, 5 µM
# [7] = target: 5-hydroxytryptamine receptor 1A (Homo sapiens) (UniProt P08908); test: Inhibition of human 5HT1A receptor at 10 uM
# [8] = target: Histamine H2 receptor (Homo sapiens) (UniProt P25021); test: Inhibition of human histamine H2 receptor at 10 uM
# Cytochrome P450 3A4 [9] = target: T1, Cytochrome P450 3A4 (Homo sapiens, UniProt P08684); test: Inhibition of human recombinant CYP3A4 at 10 uM incubated for 10 to 30 mins in presence of CYP-specific probe BFC substrate by LC-MS/MS analysis; format: ADME; conditions: recombinant enzyme
# [10] = target: Muscarinic acetylcholine receptor M1 (Homo sapiens) (UniProt P11229); test: Inhibition of human muscarinic M1 receptor at 10 uM
# in vitro [11] = conditions: human, hepatocytes
# Description: Half life in human hepatocytes at 1 uM by LC-MS/MS analysis
# [12] = target: 3',5'-cyclic-AMP phosphodiesterase 4D (Homo sapiens) (UniProt Q08499); test: Inhibition of human PDE4D2 at 10 uM
# [13] = target: Muscarinic acetylcholine receptor M3 (Homo sapiens) (UniProt P20309); test: Inhibition of human muscarinic M3 receptor at 10 uM
# [14] = target: Sodium-dependent noradrenaline transporter (Homo sapiens) (UniProt P23975); test: Inhibition of human norepinephrine transporter at 10 uM
# [15] = target: 5-hydroxytryptamine receptor 1B (Homo sapiens) (UniProt P28222); test: Inhibition of human 5HT1B receptor at 10 uM
# Mus musculus [16] = test: Suppression of human recombinant tau-induced memory impairment in C57Bl/6 mouse model of oligomeric tau infusion model assessed as attenuation of deficits in spatial and associative memory performance at 5 mg/kg, ip dosed 20 mins prior to start of testing by radial arm water maze test; format: functional, organism-based
# [17] = target: Neuronal acetylcholine receptor; alpha4/beta2 (Homo sapiens) (UniProt P17787+P43681); test: Inhibition of human alpha4beta2 nAChR receptor at 10 uM; format: protein-complex assay
# [18] = target: Voltage-gated L-type calcium channel (Rattus norvegicus, UniProt P22002+Q02485+P27732); test: Inhibition of rat L-type calcium channel at 10 uM; format: protein assay
# [19] = Toxicity in wild type mouse assessed as induction of abnormalities in liver at 250 mg/kg; format: organism-based; conditions: in vivo
# [20] = target: 5-hydroxytryptamine receptor 2B (Homo sapiens) (UniProt P41595); test: Inhibition of human 5HT2B receptor at 10 uM
# [21] = target: Cannabinoid receptor 1 (Homo sapiens) (UniProt P21554); test: Inhibition of human CB1 receptor at 10 uM
# Cytochrome P450 3A4 [22] = target: T1, Cytochrome P450 3A4; test: Inhibition of human recombinant CYP3A4 at 10 uM incubated for 10 to 30 mins in presence of CYP-specific probe BzRes substrate by LC-MS/MS analysis; format: ADME; conditions: recombinant enzyme
# [23] = target: Sodium-dependent dopamine transporter (Homo sapiens) (UniProt Q01959); test: Inhibition of human dopamine transporter at 10 uM
# Mus musculus [24] = test: Suppression of cognitive dysfunction in transgenic rTg4510 mouse model assessed as rescue of freezing deficit at […], po dosed every other day for 45 days by contextual fear conditioning assay; format: functional, organism-based
# Acetylcholinesterase = Acetylcholinesterase (Homo sapiens, UniProt P22303); test: Inhibition of human acetyl cholinesterase at 10 uM
# [25] = Toxicity in APP/PS1 knock-in mouse assessed as induction of abnormalities in liver at 250 mg/kg; format: organism-based; conditions: in vivo
# [26] = target: Beta-1 adrenergic receptor (Homo sapiens) (UniProt P08588); test: Inhibition of human adrenergic beta1 receptor at 10 uM
# [27] = target: GABA-A receptor; anion channel (Rattus norvegicus) (UniProt O09028+P15431+P18506+P18508+P19969+P20236+P23574+P23576+P28471+P28473+P30191+P62813+P63079+P63138+Q91ZM7+Q9ES14); test: Inhibition of rat GABAA receptor at 10 uM; format: protein-complex assay
# [28] = target: Prostaglandin G/H synthase 1 (Homo sapiens, UniProt P23219); test: Inhibition of human COX1 at 10 uM
# Cytochrome P450 2C8 = Cytochrome P450 2C8 (Homo sapiens, UniProt P10632); test: Inhibition of human recombinant CYP2C8 at 10 uM incubated for 10 to 30 mins in presence of CYP-specific probe DBF substrate by LC-MS/MS analysis; format: ADME; conditions: recombinant enzyme
# [29] = target: 5-hydroxytryptamine receptor 2A (Homo sapiens) (UniProt P28223); test: Inhibition of human 5HT2A receptor at 10 uM
# Mus musculus [30] = test: Effect on memory function in C57Bl/6 mouse at 5 mg/kg, ip dosed 20 mins prior to start of testing by radial arm water maze test; format: ADME, organism-based; conditions: in vivo
# Mus musculus [31] = test: Suppression of cognitive dysfunction in transgenic rTg4510 mouse model assessed as prevention of cortical tissue loss at […], po dosed every other day for 45 days; format: functional, organism-based
# [32] = target: Delta-type opioid receptor (Homo sapiens) (UniProt P41143); test: Inhibition of human OP1 receptor at 10 uM
# [33] = target: D(2) dopamine receptor (Homo sapiens) (UniProt P14416); test: Inhibition of human D2S receptor at 10 uM
# in vivo = conditions: mouse, po
# Description: Toxicity in orally dosed wild type mouse dosed daily for 14 days
# [34] = target: Beta-2 adrenergic receptor (Homo sapiens) (UniProt P07550); test: Inhibition of human adrenergic beta2 receptor at 10 uM
# Mus musculus [35] = test: Suppression of cognitive dysfunction in transgenic rTg4510 mouse model assessed as reduction in errors at […], po dosed every other day for 45 days by radial arm water maze test; format: functional, organism-based
# [36] = target: Amine oxidase [flavin-containing] B (Homo sapiens, UniProt P27338); test: Inhibition of human MAOB at 10 uM
# [37] = target: Alpha-2A adrenergic receptor (Homo sapiens) (UniProt P08913); test: Inhibition of human adrenergic alpha2a receptor at 10 uM
# Cytochrome P450 2B6 = Cytochrome P450 2B6 (Homo sapiens, UniProt P20813); test: Inhibition of human recombinant CYP2B6 at 10 uM incubated for 10 to 30 mins in presence of CYP-specific probe EFC substrate by LC-MS/MS analysis; format: ADME; conditions: recombinant enzyme
# [38] = target: Adenosine receptor A2a (Homo sapiens) (UniProt P29274); test: Inhibition of human adenosine A2A receptor at 10 uM
# [39] = Permeability in MDCK cells expressing BCRP at 5 uM by LC-MS/MS analysis; format: ADME, cell-based, Canis lupus familiaris; conditions: dog
# Cytochrome P450 2D6 = Cytochrome P450 2D6 (Homo sapiens, UniProt P10635); test: Inhibition of human recombinant CYP2D6 at 10 uM incubated for 10 to 30 mins in presence of CYP-specific probe MFC substrate by LC-MS/MS analysis; format: ADME; conditions: recombinant enzyme
# [40] = target: Cannabinoid receptor 2 (Homo sapiens) (UniProt P34972); test: Inhibition of human CB2 receptor at 10 uM
# [41] = target: Glucocorticoid receptor (Homo sapiens) (UniProt P04150); test: Inhibition of human glucocorticoid receptor at 10 uM
# [42] = target: Vasopressin V1a receptor (Homo sapiens) (UniProt P37288); test: Inhibition of human V1A receptor at 10 uM
# Mus musculus [43] = test: Suppression of human recombinant tau-induced memory impairment in C57Bl/6 mouse model of oligomeric tau infusion model assessed as attenuation of deficits in spatial and associative memory performance at 5 mg/kg, ip dosed 20 mins prior to start of testing by contextual fear conditioning assay; format: functional, organism-based
# Rattus norvegicus [44] = species on record: Rattus norvegicus; test: Inhibition of rat potassium channel at 10 uM
# [45] = target: Amine oxidase [flavin-containing] A (Rattus norvegicus, UniProt P21396); test: Inhibition of rat MAOA at 10 uM
# [46] = target: D(1A) dopamine receptor (Homo sapiens) (UniProt P21728); test: Inhibition of human DRD1 receptor at 10 uM
# [47] = target: Mu-type opioid receptor (Homo sapiens) (UniProt P35372); test: Inhibition of human OP3 receptor at 10 uM
# in vitro [48] = conditions: Beagle, dog, hepatocytes
# Description: Half life in Beagle dog hepatocytes at 1 uM by LC-MS/MS analysis
# [49] = target: cGMP-inhibited 3',5'-cyclic phosphodiesterase 3A (Homo sapiens, UniProt Q14432); test: Inhibition of human PDE3A at 10 uM
# [50] = target: Sodium-dependent serotonin transporter (Homo sapiens) (UniProt P31645); test: Inhibition of human serotonin transporter at 10 uM
# Mus musculus [51] = test: Suppression of cognitive dysfunction in transgenic rTg4510 mouse model assessed as prevention of hippocampal tissue loss at […], po dosed every other day for 45 days; format: functional, organism-based
# [52] = target: Cholecystokinin receptor type A (Homo sapiens) (UniProt P32238); test: Inhibition of human CCK1 receptor at 10 uM
# [53] = target: 5-hydroxytryptamine receptor 3A (Homo sapiens) (UniProt P46098); test: Inhibition of human 5HT3 receptor at 10 uM
# [54] = target: Kappa-type opioid receptor (Homo sapiens) (UniProt P41145); test: Inhibition of human OP2 receptor at 10 uM
# Rattus norvegicus [55] = species on record: Rattus norvegicus; test: Inhibition of rat sodium sodium channel at 10 uM
# [56] = target: Prostaglandin G/H synthase 2 (Homo sapiens, UniProt P35354); test: Inhibition of human COX2 at 10 uM
# T1 sequence (P08684 whole entry): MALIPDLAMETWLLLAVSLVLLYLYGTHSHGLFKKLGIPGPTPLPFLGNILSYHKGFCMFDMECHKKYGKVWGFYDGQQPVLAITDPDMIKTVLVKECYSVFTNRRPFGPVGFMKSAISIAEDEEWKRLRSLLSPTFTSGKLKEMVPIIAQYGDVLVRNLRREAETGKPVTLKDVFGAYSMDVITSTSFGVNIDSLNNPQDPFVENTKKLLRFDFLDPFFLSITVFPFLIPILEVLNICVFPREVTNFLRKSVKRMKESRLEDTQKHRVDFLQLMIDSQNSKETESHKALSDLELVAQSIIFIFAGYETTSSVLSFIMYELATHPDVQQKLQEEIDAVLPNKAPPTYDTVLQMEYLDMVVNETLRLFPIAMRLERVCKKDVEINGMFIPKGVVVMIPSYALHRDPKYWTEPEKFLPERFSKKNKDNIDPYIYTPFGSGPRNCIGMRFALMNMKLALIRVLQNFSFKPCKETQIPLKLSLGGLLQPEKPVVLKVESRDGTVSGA
# Sequence of Cannabinoid receptor 1 (Homo sapiens) (P21554 whole entry): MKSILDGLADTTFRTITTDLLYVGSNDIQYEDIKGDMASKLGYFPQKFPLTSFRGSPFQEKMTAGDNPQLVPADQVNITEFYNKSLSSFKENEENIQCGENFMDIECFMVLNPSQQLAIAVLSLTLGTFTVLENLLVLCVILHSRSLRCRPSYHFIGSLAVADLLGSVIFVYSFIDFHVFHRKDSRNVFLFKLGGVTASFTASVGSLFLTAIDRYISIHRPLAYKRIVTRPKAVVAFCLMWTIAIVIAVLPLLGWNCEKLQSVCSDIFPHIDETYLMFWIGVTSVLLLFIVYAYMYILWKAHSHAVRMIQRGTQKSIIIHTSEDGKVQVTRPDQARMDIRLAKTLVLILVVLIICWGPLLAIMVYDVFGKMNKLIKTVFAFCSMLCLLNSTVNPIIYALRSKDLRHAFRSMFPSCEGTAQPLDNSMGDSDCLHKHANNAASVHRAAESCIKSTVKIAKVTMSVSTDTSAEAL
# Sequence of Amine oxidase [flavin-containing] B (P27338 whole entry): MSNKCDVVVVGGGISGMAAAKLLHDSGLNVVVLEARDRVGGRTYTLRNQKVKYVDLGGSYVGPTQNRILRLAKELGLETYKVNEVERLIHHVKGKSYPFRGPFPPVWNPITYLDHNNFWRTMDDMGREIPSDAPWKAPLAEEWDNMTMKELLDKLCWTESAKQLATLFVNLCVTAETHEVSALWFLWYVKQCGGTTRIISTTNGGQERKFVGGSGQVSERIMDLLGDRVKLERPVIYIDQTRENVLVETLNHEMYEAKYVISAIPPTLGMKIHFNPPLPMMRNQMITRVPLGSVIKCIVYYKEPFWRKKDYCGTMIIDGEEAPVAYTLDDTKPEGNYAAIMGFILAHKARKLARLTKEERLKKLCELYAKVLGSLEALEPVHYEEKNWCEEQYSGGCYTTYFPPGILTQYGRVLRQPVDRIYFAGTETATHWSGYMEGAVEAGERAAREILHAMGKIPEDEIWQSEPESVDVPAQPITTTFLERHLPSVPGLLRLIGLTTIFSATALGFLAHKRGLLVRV
# Sequence of Amine oxidase [flavin-containing] A (P21396 whole entry): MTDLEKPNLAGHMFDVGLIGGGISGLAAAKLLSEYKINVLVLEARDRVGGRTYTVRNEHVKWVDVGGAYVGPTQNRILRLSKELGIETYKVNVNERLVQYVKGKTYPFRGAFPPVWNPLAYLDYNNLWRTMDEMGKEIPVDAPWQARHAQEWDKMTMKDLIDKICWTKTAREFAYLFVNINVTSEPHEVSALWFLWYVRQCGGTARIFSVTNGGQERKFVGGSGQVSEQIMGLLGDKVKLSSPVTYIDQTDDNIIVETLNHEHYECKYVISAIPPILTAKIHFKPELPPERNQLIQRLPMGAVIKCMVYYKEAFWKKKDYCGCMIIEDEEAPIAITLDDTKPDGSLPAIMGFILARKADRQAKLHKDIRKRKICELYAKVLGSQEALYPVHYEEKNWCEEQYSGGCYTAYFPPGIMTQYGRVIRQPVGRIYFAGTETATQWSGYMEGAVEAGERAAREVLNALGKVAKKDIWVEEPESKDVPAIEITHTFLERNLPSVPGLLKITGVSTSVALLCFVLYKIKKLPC
# Sequence of Alpha-1A adrenergic receptor (Homo sapiens) (P35348 whole entry): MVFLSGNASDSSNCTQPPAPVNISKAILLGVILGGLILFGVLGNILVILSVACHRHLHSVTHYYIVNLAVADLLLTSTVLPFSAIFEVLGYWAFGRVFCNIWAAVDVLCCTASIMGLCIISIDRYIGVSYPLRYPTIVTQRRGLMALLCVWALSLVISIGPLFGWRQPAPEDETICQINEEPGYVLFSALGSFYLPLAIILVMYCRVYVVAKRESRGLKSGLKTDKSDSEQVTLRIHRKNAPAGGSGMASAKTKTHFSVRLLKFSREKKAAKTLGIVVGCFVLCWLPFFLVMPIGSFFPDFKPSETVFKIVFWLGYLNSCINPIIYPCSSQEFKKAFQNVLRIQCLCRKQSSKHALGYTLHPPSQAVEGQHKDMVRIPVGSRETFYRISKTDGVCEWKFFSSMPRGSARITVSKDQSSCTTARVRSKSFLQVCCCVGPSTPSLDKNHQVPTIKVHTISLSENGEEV
# Sequence of Cytochrome P450 2C8 (P10632 whole entry): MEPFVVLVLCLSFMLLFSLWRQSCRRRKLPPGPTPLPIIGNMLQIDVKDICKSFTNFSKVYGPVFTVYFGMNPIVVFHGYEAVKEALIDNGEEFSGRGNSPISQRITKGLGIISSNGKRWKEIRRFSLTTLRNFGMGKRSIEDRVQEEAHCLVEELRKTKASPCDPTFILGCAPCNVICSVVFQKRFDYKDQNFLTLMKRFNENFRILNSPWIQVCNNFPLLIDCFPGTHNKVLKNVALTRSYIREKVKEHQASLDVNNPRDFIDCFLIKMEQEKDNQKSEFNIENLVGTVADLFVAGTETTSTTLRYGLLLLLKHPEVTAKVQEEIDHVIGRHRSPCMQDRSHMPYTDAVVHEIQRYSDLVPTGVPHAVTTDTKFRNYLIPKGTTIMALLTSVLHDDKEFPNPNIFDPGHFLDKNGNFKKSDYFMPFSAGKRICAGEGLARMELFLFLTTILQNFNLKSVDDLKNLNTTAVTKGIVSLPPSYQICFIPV
# Sequence of Sodium-dependent dopamine transporter (Homo sapiens) (Q01959 whole entry): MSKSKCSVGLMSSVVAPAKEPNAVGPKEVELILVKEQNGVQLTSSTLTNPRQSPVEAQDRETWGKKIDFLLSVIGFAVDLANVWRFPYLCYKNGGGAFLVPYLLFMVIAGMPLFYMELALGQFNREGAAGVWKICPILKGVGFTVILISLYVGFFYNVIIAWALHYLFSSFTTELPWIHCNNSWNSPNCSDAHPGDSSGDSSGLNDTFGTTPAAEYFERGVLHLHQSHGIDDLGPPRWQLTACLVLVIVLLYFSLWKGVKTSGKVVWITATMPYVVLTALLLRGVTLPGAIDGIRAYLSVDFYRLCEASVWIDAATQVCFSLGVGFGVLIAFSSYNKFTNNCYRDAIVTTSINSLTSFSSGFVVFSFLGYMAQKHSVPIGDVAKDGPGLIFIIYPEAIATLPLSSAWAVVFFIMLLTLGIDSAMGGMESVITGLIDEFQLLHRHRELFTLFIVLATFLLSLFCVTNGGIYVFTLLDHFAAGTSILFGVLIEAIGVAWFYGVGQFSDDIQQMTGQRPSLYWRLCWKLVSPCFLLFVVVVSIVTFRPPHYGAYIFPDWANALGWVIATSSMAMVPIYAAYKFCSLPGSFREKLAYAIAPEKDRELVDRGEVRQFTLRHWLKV
# Sequence of Prostaglandin G/H synthase 1 (P23219 whole entry): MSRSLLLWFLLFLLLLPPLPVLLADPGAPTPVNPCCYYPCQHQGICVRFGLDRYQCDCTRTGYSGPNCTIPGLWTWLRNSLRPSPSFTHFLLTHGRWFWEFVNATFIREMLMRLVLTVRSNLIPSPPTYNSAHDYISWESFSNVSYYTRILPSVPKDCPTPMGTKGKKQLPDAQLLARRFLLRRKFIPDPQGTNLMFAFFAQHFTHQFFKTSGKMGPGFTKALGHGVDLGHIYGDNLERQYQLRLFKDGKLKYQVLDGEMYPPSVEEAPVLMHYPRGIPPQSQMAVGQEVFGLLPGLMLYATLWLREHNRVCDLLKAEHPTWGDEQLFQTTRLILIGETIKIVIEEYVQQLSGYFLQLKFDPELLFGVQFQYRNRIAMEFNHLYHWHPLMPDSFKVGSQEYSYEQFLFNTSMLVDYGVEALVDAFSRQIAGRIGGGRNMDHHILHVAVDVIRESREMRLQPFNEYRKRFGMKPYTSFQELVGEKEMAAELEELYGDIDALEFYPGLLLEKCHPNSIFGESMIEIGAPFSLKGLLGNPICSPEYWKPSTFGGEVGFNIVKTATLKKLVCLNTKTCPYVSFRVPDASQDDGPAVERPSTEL
# Sequence of 5-hydroxytryptamine receptor 2B (Homo sapiens) (P41595 whole entry): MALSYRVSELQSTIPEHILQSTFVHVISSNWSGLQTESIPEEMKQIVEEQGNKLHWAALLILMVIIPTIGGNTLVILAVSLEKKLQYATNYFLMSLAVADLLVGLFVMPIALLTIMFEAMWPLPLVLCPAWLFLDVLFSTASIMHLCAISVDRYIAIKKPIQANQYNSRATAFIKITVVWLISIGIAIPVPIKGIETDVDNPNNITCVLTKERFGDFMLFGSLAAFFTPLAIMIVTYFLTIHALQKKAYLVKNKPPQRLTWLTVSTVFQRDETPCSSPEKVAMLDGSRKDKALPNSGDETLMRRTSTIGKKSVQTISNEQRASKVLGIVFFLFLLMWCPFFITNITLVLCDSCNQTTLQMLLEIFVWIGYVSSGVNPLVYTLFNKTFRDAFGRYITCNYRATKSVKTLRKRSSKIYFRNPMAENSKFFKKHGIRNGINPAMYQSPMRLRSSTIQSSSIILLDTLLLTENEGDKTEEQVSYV
structure (smiles),measurement,setting,value
c1ccc2cc(-c3nnc(N4CCCCC4)cc3-c3ccncc3)ccc2c1,t1/2,[1],0.1 h
c1ccc2cc(-c3nnc(N4CCNCC4)cc3-c3ccncc3)ccc2c1,t1/2,[1],> 1 h
CN1CCN(c2cc(-c3ccncc3)c(-c3ccc4ccccc4c3)nn2)CC1 [MW-150],inhibition,[2],inactive
same,inhibition (INH),Cytochrome P450 1A2,Not Active
same,inhibition (INH),Cytochrome P450 2C19,Not Active
same,inhibition,[3],inactive
same,inhibition,[4],inactive
same,inhibition,[5],inactive
same,inhibition (INH),Cytochrome P450 2C9,Not Active
same,permeability,[6],Permeable
same,inhibition,[7],inactive
same,inhibition,[8],inactive
same,inhibition (INH),Cytochrome P450 3A4 [9],Not Active
same,inhibition,[10],inactive
same,half-life at 1 µM,in vitro [11],> 2 h
same,inhibition,[12],inactive
same,inhibition,[13],inactive
same,inhibition,[14],inactive
same,inhibition,[15],inactive
same,Activity,Mus musculus [16],Active
same,inhibition,[17],inactive
same,inhibition (INH),[18],Not Active
same,Activity,[19],Non-Toxic
same,inhibition,[20],inactive
same,inhibition,[21],inactive
same,inhibition (INH),Cytochrome P450 3A4 [22],Not Active
same,inhibition,[23],inactive
same,Activity,Mus musculus [24],Active
same,inhibition (INH),Acetylcholinesterase,Not Active
same,Activity,[25],Non-Toxic
same,inhibition,[26],inactive
same,inhibition,[27],inactive
same,inhibition (INH),[28],Not Active
same,inhibition (INH),Cytochrome P450 2C8,Not Active
same,inhibition,[29],inactive
same,Activity,Mus musculus [30],Non-Toxic
same,Activity,Mus musculus [31],Active
same,inhibition,[32],inactive
same,inhibition,[33],inactive
same,NOAEL at 336 h,in vivo,125 mg/kg
same,inhibition,[34],inactive
same,Activity,Mus musculus [35],Active
same,inhibition (INH),[36],Not Active
same,inhibition,[37],inactive
same,inhibition (INH),Cytochrome P450 2B6,Not Active
same,inhibition,[38],inactive
same,permeability,[39],Permeable
same,inhibition (INH),Cytochrome P450 2D6,Not Active
same,inhibition,[40],inactive
same,inhibition,[41],inactive
same,inhibition,[42],inactive
same,Activity,Mus musculus [43],Active
same,inhibition,Rattus norvegicus [44],inactive
same,inhibition (INH),[45],Not Active
same,inhibition,[46],inactive
same,inhibition,[47],inactive
same,half-life at 1 µM,in vitro [48],> 2 h
same,inhibition (INH),[49],Not Active
same,inhibition,[50],inactive
same,Activity,Mus musculus [51],inactive
same,inhibition,[52],inactive
same,inhibition,[53],inactive
same,inhibition,[54],inactive
same,inhibition,Rattus norvegicus [55],inactive
same,inhibition (INH),[56],Not Active
